This note sets out measurements from paper PMC10635480, “An engineered thermally tolerant apo-cytochrome scaffold for metal-less incorporation of heme derivative” (PLOS ONE, 2023).

Test [1] deals with T1, rC552 C14A (cytochrome c552, apo-form) (Thermus thermophilus, UniProt Q5SME3, C31A/M86F).
T1 construct: gene cycA; recombinant, E. coli BL21(DE3), pET-rC552 C14A; no tag mentioned; heme-free apo-form isolated by butyl-Sepharose
It counts as binding.

Test [2] deals with T2, rC552 C14A (cytochrome c552, apo-form) (Thermus thermophilus, UniProt Q5SME3, C31A).
T2 construct: gene cycA; recombinant, E. coli BL21(DE3), pET-rC552 C14A; no tag mentioned; heme-free apo-form isolated by butyl-Sepharose
T2 sequence (Q5SME3 18-148 C31A): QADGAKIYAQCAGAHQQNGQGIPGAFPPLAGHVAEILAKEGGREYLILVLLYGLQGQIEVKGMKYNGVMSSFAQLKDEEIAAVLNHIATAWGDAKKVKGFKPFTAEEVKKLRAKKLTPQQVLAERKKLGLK
As to the kind of experiment: time-dependent UV-Vis reconstitution. Conditions: equimolar 5 uM, 25 °C. It counts as binding.

T1 sequence (Q5SME3 18-148 C31A/M86F): as the sequence (Q5SME3 18-148 C31A) above, with M69F counted along it

As to `C=CC1=C(C)c2cc3[nH]c(cc4nc(cc5[nH]c(cc1n2)c(C)c5CCC(=O)O)C(CCC(=O)O)=C4C)c(C)c3C=C` [protoporphyrin IX (metal-free)], in test [1], the “Tm of reconstituted protein (not dTm)” value was found to be 58 °C. Besides, the “time-dependent UV-Vis reconstitution” value in test [2] is on record as “Time-dependent UV–Vis spectra show a rather slow reconstitution process while mixing equal concentrations”.
